This is an account of results in publication PMC6213206, “Cyclopropane-Containing Fatty Acids from the Marine Bacterium Labrenzia sp. 011 with Antimicrobial and GPR84 Activity” (Marine Drugs, 2018).

For one assay, the system named is MRSA LT-1334. The experiment in a line: disc diffusion assay, multidrug-resistant pathogen. Format: cell-based. The conditions noted are these: Staphylococcus aureus; MRSA LT-1334 (multidrug-resistant); 4 μg per disc; read-out: growth inhibition zone. As for the experimental part:
(§1) Compounds 1 and 2 were tested against a range of microorganisms, namely the Gram-positive bacterium Bacillus megaterium DSM 32, the Gram-negative bacterium Escherichia coli JM 83 and Pseudoroseovarius crassostreae DSM 16950^T; the fungal organisms utilized were Eurotium rubrum DSM 62631, Microbotryum violaceum MB#110229, and Mycotypha microspora MB#271115. Tests were performed according to Reference. 50 μg of pure compounds or positive controls were taken from a solution of 1 mg/mL and applied on sterile paper discs on agar plates of the corresponding medium for each test organism. Multidrug-resistant pathogens Escherichia coli I-11276b, MRSA LT-1338, MRSA LT-1334 were tested with 4 μg of compound 2 in each disc. Thereafter, suspensions of the organisms were sprayed on the agar and incubated. Miconazole and streptomycin were used as positive controls. Inhibition zones were measured from the edge of the disc to the end of the area free of growth. Only total inhibition (>1 mm) was considered as a positive result.

Another assay has as its system MRSA LT-1338. The experiment in a line: disc diffusion assay, multidrug-resistant pathogen. In kind it is cell-based. The conditions noted are these: Staphylococcus aureus; MRSA LT-1338 (multidrug-resistant); 4 μg per disc; read-out: growth inhibition zone. As for the experimental part:
as §1
A general note: In agar diffusion tests the substance spreads into inoculated agar from a disc or well.

The test system of assay [1] is Escherichia coli I-11276b. In words: disc diffusion assay, multidrug-resistant pathogen. Format: cell-based. The conditions noted are these: I11276B; Escherichia coli I-11276b (multidrug-resistant); 4 μg per disc; read-out: growth inhibition zone. As for the experimental part:
as §1

The subject of another assay is Escherichia coli DSM 498. In words: disc diffusion assay. The conditions noted are these: DSM498, 50 μg per disc, read-out: growth inhibition zone. Format: cell-based.
The target in assay [2] is T1, human GPR84 (Homo sapiens, UniProt Q9NQS5).
T1 construct: CHO-hGPR84)
T1 sequence (Q9NQS5 whole entry): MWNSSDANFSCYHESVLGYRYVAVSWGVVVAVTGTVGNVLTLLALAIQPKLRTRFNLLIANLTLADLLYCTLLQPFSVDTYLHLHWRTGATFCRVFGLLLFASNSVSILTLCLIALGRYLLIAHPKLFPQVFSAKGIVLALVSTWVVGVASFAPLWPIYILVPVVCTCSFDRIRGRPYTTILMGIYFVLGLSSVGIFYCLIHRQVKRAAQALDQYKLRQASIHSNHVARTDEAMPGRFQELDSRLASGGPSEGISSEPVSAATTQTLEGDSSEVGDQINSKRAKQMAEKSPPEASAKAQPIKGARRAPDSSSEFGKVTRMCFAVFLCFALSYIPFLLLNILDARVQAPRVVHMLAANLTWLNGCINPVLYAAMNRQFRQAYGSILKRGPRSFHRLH
In words: cAMP accumulation assay in CHO cells expressing human GPR84. Format: cell-based. More on the design: Emax: dose or concentration left out as unconfirmed. The settings on record: for activity in cAMP assay (in words): Gi-mediated signaling; for cAMP Assay percent receptor activation: at 100 μM, forskolin 10 μM; for EC50: read-out: cAMP Assay EC50 ± SD. From the text: (§2) cAMP accumulation assays determined the potency of the test compounds to inhibit forskolin-induced cAMP accumulation in Chinese hamster ovary (CHO) cells, stably expressing human GPR84, whereas the β-arrestin recruitment assays used the enzyme complementation technology.
The recombinant CHO cell line expressing the human GPR84 (CHO-hGPR84) with a β-galactosidase fragment and β-arrestin containing the complementary fragment of the enzyme was purchased from DiscoverX (Fremont, CA, USA). This cell line was used for the β-arrestin recruitment assays as well as for cAMP accumulation assays. The CHO-hGPR84 cells were cultured in F12 medium supplemented with 10% FCS, 100 units/mL penicillin G, 100 μg/mL streptomycin, 800 μg/mL G 418, 300 μg/mL hygromycin B, and 1% ultraglutamin (Invitrogen, Carlsbad, CA or Sigma-Aldrich, St. Louis, MO, USA). Stock solutions of compounds were prepared in DMSO (final DMSO concentration: 1%). Data were analyzed using Graph Pad Prism version 6.0 (San Diego, CA, USA). Concentration-response data were fitted by nonlinear regression to estimate EC50 values.
cAMP assays were performed as previously described. CHO cells overexpressing the human GPR84 were stimulated with forskolin (10 μM) in the absence (control) or presence of test compound for 15 min. The reaction was stopped by the addition of hot (90 °C) lysis solution containing 4 mM EDTA and 0.01% Triton X-100 in water. cAMP levels were quantified by a radioactive assay using [³H]cAMP (Perkin-Elmer, Rodgau, Germany). The forskolin-induced change in cAMP concentration in the presence of the test compound was expressed as a percentage of the response to forskolin in the absence of agonist (% of control). Three independent experiments, each in duplicates were performed.

Assay [3] has as its target T1, human GPR84. The experiment in a line: β-arrestin recruitment assay (β-galactosidase enzyme complementation) in CHO-hGPR84 cells. In kind it is cell-based. The conditions noted are these: for EC50: n = 5, read-out: β-Arrestin Assay EC50 ± SD; for Emax: relative to maximal effect of full agonist embelin (10 μM) = 100%, read-out: β-Arrestin Assay Efficacy (Emax).
Excerpt: as §2
The recombinant CHO cell line expressing the human GPR84 (CHO-hGPR84) with a β-galactosidase fragment and β-arrestin containing the complementary fragment of the enzyme was purchased from DiscoverX (Fremont, CA, USA). This cell line was used for the β-arrestin recruitment assays as well as for cAMP accumulation assays. […] Stock solutions of compounds were prepared in DMSO (final DMSO concentration: 1%). Data were analyzed using Graph Pad Prism version 6.0 (San Diego, CA, USA). Concentration-response data were fitted by nonlinear regression to estimate EC50 values.
β-arrestin assays were performed as previously described. Briefly, CHO cells expressing the human GPR84 with a β-galactosidase fragment and β-arrestin containing the complementary fragment of the enzyme were incubated with a series of compound dilutions (in DMSO, final DMSO concentration: 1%) for 90 min before adding the detection reagent (DiscoverX®, Fremont, CA, USA). After 60 min of incubation at room temperature the luminescence was measured using an NXT plate reader (Perkin-Elmer, Rodgau, Germany). Three to five independent experiments were performed, each in duplicates.
(Activated receptors often draw arrestin, which recruitment assays turn into a signal.)

Assay [4] deals with Eurotium rubrum DSM 62631. In words: disc diffusion assay. Format: cell-based. The conditions noted are these: for zone of inhibition at 50 µg/disc: Aspergillus ruber, DSM62631, 50 μg per disc, read-out: growth inhibition zone. As for the experimental part: as §1
Assay [5] deals with Bacillus megaterium DSM 32. In words: disc diffusion assay. Format: cell-based. The conditions noted are these: Priestia megaterium, DSM32, 50 μg per disc, read-out: growth inhibition zone. The procedure:
as §1

Assay [6] has as its system Pseudoroseovarius crassostreae DSM 16950T. In words: disc diffusion assay. In kind it is cell-based. The conditions noted are these: Aliiroseovarius crassostreae, DSM16950T, 50 μg per disc, read-out: growth inhibition zone. The procedure:
as §1

For assay [7], the system named is Mycotypha microspora MB#271115. In words: disc diffusion assay. In kind it is cell-based. The settings on record: 50 μg per disc, read-out: growth inhibition zone. As for the experimental part: as §1
Assay [8] deals with Microbotryum violaceum MB#110229. In words: disc diffusion assay. Format: cell-based. The settings on record: 50 μg per disc, read-out: growth inhibition zone. The procedure: as §1
Assay [9] concerns the target T1, human GPR84. Details: method as in PMID 28406627. The settings on record: relative to maximal effect of full agonist decanoic acid (100 μM) = 100%; cited from earlier work.

What is called EC50 is the concentration that produces a half-maximal response. A word on the Emax: it is the greatest response seen or fitted, relative to the assay's reference. For `CCCCCC[C@H]1C[C@H]1CC(=O)O` (relative stereo) [Compound 2, cis-2-(2-hexylcyclopropyl)-acetic acid], the zone of inhibition at 4 µg/disc was 3 mm in the assay on MRSA LT-1334, 2 mm in the assay with MRSA LT-1338 and 2 mm in assay [1]. Also, the zone of inhibition at 50 µg/disc came to 3 mm in the assay on Escherichia coli DSM 498; 10 mm in assay [4]; 10 mm in [5]; 5 mm in assay [6]; 6 mm in assay [7]; 10 mm in assay [8]. For the same compound, the “activity in cAMP assay (in words)” value at human GPR84 [2] is “did neither induce nor block Gi-mediated signaling”. The “cAMP Assay percent receptor activation” value at human GPR84 [2] was 24%. Besides, the EC50 on human GPR84 [2] was more than 100 µM; on human GPR84 [3], 0.114 ± 0.135 µM. In addition, at human GPR84 [3] (fold more potent than dodecanoic acid (EC50 = 2.84 μM)), the “potency in β-arrestin assay relative to dodecanoic acid” value came out at 25 fold. The maximal effect (Emax) on human GPR84 [3] amounted to 54%.

Consider `[H]/N=C(/N)N[C@H]1[C@H](O)[C@@H](O)[C@H](O[C@@H]2O[C@@H](C)[C@](O)(C=O)[C@H]2O[C@@H]2O[C@@H](CO)[C@H](O)[C@@H](O)[C@@H]2NC)[C@@H](N/C(N)=N\[H])[C@@H]1O` [Streptomycin, reference compound], for which the zone of inhibition at 50 µg/disc in the assay with Escherichia coli DSM 498 is 6 mm; in [5], 9 mm; in assay [6] it was 6 mm.

Take `CCCCCCCCCCCC(=O)O` [Dodecanoic acid, reference compound]: the Emax at human GPR84 [2] (CHO, read-out: cAMP Assay Efficacy (Emax)) is 94%; on human GPR84 [3] it was 95%. Also, the concentration for a half-maximal effect (EC50) was 8.87 ± 4.46 µM at human GPR84 [2] and 2.84 ± 0.54 µM at human GPR84 [3].

As for `Clc1ccc(COC(Cn2ccnc2)c2ccc(Cl)cc2Cl)c(Cl)c1` (stereo not shown) [Miconazole, reference compound], the zone of inhibition at 50 µg/disc in [4] was found to be 8 mm; in [7] it was 9 mm; in [8], 6 mm.

In the case of `CCCCCCCCCC(=O)O` [Decanoic acid], the “cAMP Assay Efficacy (Emax)” value at human GPR84 [9] was 100% [26].

Consider `CCCCCC[C@H]1C[C@H]1CCCC(=O)O` (relative stereo) [Compound 1, cis-4-(2-hexylcyclopropyl)-butanoic acid], for which the zone of inhibition at 50 µg/disc amounted to 2 mm in the assay on Escherichia coli DSM 498, 5 mm in assay [6], 3 mm in assay [7] and 8 mm in assay [8]. In addition, the “activity in cAMP assay (in words)” value on human GPR84 [2] was “inactive”. Further, the “cAMP Assay percent receptor activation” value on human GPR84 [2] turned out to be 0%. For the same compound, the concentration giving a half-maximal response (EC50) at human GPR84 [2] was more than 100 µM; at human GPR84 [3], more than 30 µM. Besides, the “activity in β-arrestin assay (in words)” value on human GPR84 [3] is “inactive”. On human GPR84 [3] (at 30 μM), the “β-Arrestin Assay percent receptor activation” value was 17%. Further, the growth inhibition zone entry in assay [4] (50 μg per disc) is reported as “devoid of activity”.
